Test results from ChEMBL document CHEMBL1201862, “PubChem BioAssay data set” (2004).
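Interpolation was linear, between the two tested concentrations surrounding the appropriate level; five concentrations were tested over 48 hours in 96-well plates. Abbreviation: GI50, concentration required for 50% inhibition of growth.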 The source made the active and inactive calls. Cut-off read from the data, not from the text of the source: active = GI50 up to about 1.1 µM and inactive = higher.

Key:
Assay in all cases: inhibition of tumour cell growth, NCI panel, 48 h
M14 = system: M14
NCI-H23 = system: NCI-H23
SR = system: SR
SK-OV-3 = system: SK-OV-3
CCRF-CEM = system: CCRF-CEM
HL-60 = system: HL-60
HT-29 = system: HT-29
SK-MEL-2 = system: SK-MEL-2
MDA-N = system: MDA-N
OVCAR-3 = system: OVCAR-3
RXF 393 = system: RXF 393
A549 = system: A549
ACHN = system: ACHN
BT-549 = system: BT-549
LOX IMVI = system: LOX IMVI
Malme-3M = system: Malme-3M
HCT-116 = system: HCT-116
HOP-62 = system: HOP-62

Measured: GI50

CC(=O)OC(=C(C#N)C#N)c1nccnc1C(C)=O
inactive: M14 4.8 µM | NCI-H23 > 20 µM | SR 18.5 µM | SK-OV-3 > 20 µM | CCRF-CEM 11.2 µM | HL-60 7.01 µM | HT-29 4.2 µM | SK-MEL-2 > 20 µM | MDA-N 6.17 µM | OVCAR-3 14.6 µM | RXF 393 5.77 µM | A549 11.9 µM | ACHN > 20 µM | BT-549 13.3 µM | LOX IMVI > 20 µM | Malme-3M 9.29 µM

CCSC12OC3(CCCCCN3C1=O)C1C(=O)N(c3ccccc3)C(=O)C12 (configuration not stated)
inactive: M14 > 100 µM | NCI-H23 > 100 µM | SR > 100 µM | SK-OV-3 > 100 µM | CCRF-CEM > 100 µM | HL-60 > 100 µM | HT-29 > 100 µM | HCT-116 > 100 µM | SK-MEL-2 > 100 µM | MDA-N > 100 µM | OVCAR-3 > 100 µM | RXF 393 > 100 µM | A549 > 100 µM | ACHN > 100 µM | BT-549 > 100 µM | LOX IMVI > 100 µM | Malme-3M > 100 µM

CC(C)(C)OC(=O)N[C@@H](Cc1ccccc1)C(=O)N1CC[C@@H](C(=O)N2[C@H]3CC4CC[C@@]3(CS2(=O)=O)C4(C)C)N1
inactive: M14 74 µM | NCI-H23 50.6 µM | SR > 100 µM | SK-OV-3 > 100 µM | CCRF-CEM 51.3 µM | HL-60 75.5 µM | HT-29 97.3 µM | HCT-116 47.3 µM | SK-MEL-2 61.7 µM | MDA-N 39.3 µM | OVCAR-3 51.6 µM | RXF 393 > 100 µM | A549 43.8 µM | ACHN 64.9 µM | BT-549 63.5 µM | LOX IMVI 75.9 µM | HOP-62 78.3 µM

CCN(CC)C(=S)SNCc1ccc(S(N)(=O)=O)cc1
inactive: M14 10.7 µM | NCI-H23 19.3 µM | SR 1.28 µM | SK-OV-3 40.1 µM | HL-60 4.54 µM | HT-29 8.47 µM | HCT-116 13.2 µM | SK-MEL-2 16.6 µM | MDA-N 15.6 µM | OVCAR-3 14.4 µM | RXF 393 18.1 µM | A549 12.3 µM | ACHN 15.3 µM | BT-549 18.5 µM | LOX IMVI 13.5 µM | Malme-3M 15.3 µM | HOP-62 15.4 µM
